Values quoted from earlier work as cited in patent publication US20060280700A1, “Oral hygiene system to fight the effects of aging on the mouth, gums, and teeth” (priority 2005, published 2006).

Legend:
[1] = system: Pophyromonas proteinases
[2] = system: oral squamous carcinoma cells; conditions: for inhibition in growth of oral squamous carcinoma cells: in culture
[3] = system: Streptococcus mutants; conditions: rodent model inoculated with Streptococcus mutants

Compound | inhibition of the activity of Pophyromonas proteinases [1] | inhibition of DNA synthesis [2] | inhibition in growth of oral squamous carcinoma cells [2] | cariogenic action [3]
(−)-epicatechin-3-gallate [ECG] | significantly inhibited | dose-dependent inhibition | significant dose dependent inhibition | 
Oc1cc(O)c2c(c1)O[C@H](c1cc(O)c(O)c(O)c1)[C@H](O)C2 [EGC, (−) epigauocatechin] |  | dose-dependent inhibition | significant dose dependent inhibition | 
OC[C@@H](O)[C@H](O)[C@@H](O)CO [Xylitol] |  |  |  | little or no cariogenic action
O=C(O[C@@H]1Cc2c(O)cc(O)cc2O[C@@H]1c1cc(O)c(O)c(O)c1)c1cc(O)c(O)c(O)c1 [EGCG, (−)-epigallocatechin-3-gallate] | significantly inhibited | dose-dependent inhibition | significant dose dependent inhibition | 
(−)-gallocatechin gallate | significantly inhibited |  |  | 
O=C(O[C@@H]1Cc2c(O)cc(O)cc2O[C@H]1c1ccc(O)c(O)c1)c1cc(O)c(O)c(O)c1 [(−)-catechin gallate] | significantly inhibited |  |  | 
